The values that follow come from patent publication US11458121B2, “Therapeutic compounds and methods to treat infection” (priority 2017, dated 2022).

Values after ≈ are worked out from the molar mass of the structure shown. Structures can show the parent of a compound that is named as a salt.

One assay has as its system E. coli 25922. Briefly: Intrinsic MIC assay (CLSI broth microdilution). The assay is classed as cell-based, Escherichia coli. As to conditions: Escherichia coli, 18 h; E. coli 25922; compound alone, without EPI; read-out: Antibiotic Activity Against E. coli Intrinsic MIC. From the text: As used herein, the term “minimum inhibitory concentration (MIC)” refers to the lowest concentration of a compound (e.g., an antibiotic) that prevents visible growth of a bacterium. Assays for measuring the MIC of a compound are known in the art, for example, as described herein. As used herein, the term “intrinsic MIC” refers the MIC of a compound (e.g., an antibiotic) for the particular bacterial species that has not been pre-exposed to the compound. Intrinsic MIC Assays MIC assays were conducted in accordance with Clinical and Laboratory Standards Institute (CLSI) guidelines for broth microdilution. A 96-well plate containing cation-adjusted Mueller-Hinton (CAMH broth with 2-fold serial dilution of compounds was inoculated with log-phase bacterial at 5×10^5 CFU/mL. The final volume in each well was 100 μL. Each compound was tested in duplicate. The microtiter plates were incubated in an aerobic environment for 18 hours at 37° C. Then the bacterial growth was tested by reading the plate with a VersaMax plate reader (Molecular Devices, Inc.) at 600 nm. The MIC was defined as the lowest compound concentration that inhibited 90% of bacteria growth. The intrinsic MIC of the experimental EPIs was tested with the method described. […] The following Gram-negative bacterial strains were included in these assays: Escherichia coli ATCC 25922
For orientation: In broth dilution the organism is exposed to a series of concentrations in liquid medium.

The subject of assay [1] is P. aeruginosa PAO1. Briefly: MIC assay in the presence of a bacterial efflux pump inhibitor (EPI). The following applies: P. aeruginosa PAO1; for Enhancement (intrinsic MIC versus MIC with EPI): fold enhancement with 12.5 ug/ml EPI; for Antibiotic Activity Against P. aeruginosa MIC with EPI: with 12.5 ug/ml of EPI (2S,4R)-4-(ammoniomethyl)-2-((6-(4-fluorophenyl)-1H-indole-2-carboxamido)methyl)pyrrolidin-1-ium. Format: cell-based, Pseudomonas aeruginosa. On the procedure:
The ability of a compound to produce an antibiotic effect can be determined using a method as described in Example 42. […] MIC assays were conducted in accordance with Clinical and Laboratory Standards Institute (CLSI) guidelines for broth microdilution. A 96-well plate containing cation-adjusted Mueller-Hinton (CAMH broth with 2-fold serial dilution of compounds was inoculated with log-phase bacterial at 5×10^5 CFU/mL. The final volume in each well was 100 μL. Each compound was tested in duplicate. The microtiter plates were incubated in an aerobic environment for 18 hours at 37° C. Then the bacterial growth was tested by reading the plate with a VersaMax plate reader (Molecular Devices, Inc.) at 600 nm. The MIC was defined as the lowest compound concentration that inhibited 90% of bacteria growth. MIC Assays in the Presence of a Bacterial Efflux Inhibitor The EPI assay for the purposes of these studies represents a MIC assay in which the MIC of the antibiotic against the bacteria is tested in the presence of an experimental efflux pump inhibitor (EPI). The highest concentration of the EPI present in the assay typically is ½ of the intrinsic MIC of the compound. […] Using serial dilutions of the EPI, its enhancement of antibiotic activity was then evaluated. The relative EPI activity was decided by comparing the MIC of the antibiotic in the presence of the EPI compound with the intrinsic MIC of the antibiotic alone. For comparative purposes, we generally used EPIs at concentration of 12.5 and 6.25 μg/ml against varying concentration of our test antibiotic.

Assay [2] relates to P. aeruginosa PAO1. Briefly: Intrinsic MIC assay (CLSI broth microdilution). Format: cell-based. As to conditions: Pseudomonas aeruginosa, 18 h; P. aeruginosa PAO1; compound alone, without EPI; MIC = lowest concentration inhibiting 90% of growth; read-out: Antibiotic Activity Against P. aeruginosa Intrinsic MIC. The text has this:
As used herein, the term “minimum inhibitory concentration (MIC)” refers to the lowest concentration of a compound (e.g., an antibiotic) that prevents visible growth of a bacterium. Assays for measuring the MIC of a compound are known in the art, for example, as described herein. As used herein, the term “intrinsic MIC” refers the MIC of a compound (e.g., an antibiotic) for the particular bacterial species that has not been pre-exposed to the compound. Intrinsic MIC Assays MIC assays were conducted in accordance with Clinical and Laboratory Standards Institute (CLSI) guidelines for broth microdilution. A 96-well plate containing cation-adjusted Mueller-Hinton (CAMH broth with 2-fold serial dilution of compounds was inoculated with log-phase bacterial at 5×10^5 CFU/mL. The final volume in each well was 100 μL. Each compound was tested in duplicate. The microtiter plates were incubated in an aerobic environment for 18 hours at 37° C. Then the bacterial growth was tested by reading the plate with a VersaMax plate reader (Molecular Devices, Inc.) at 600 nm. The MIC was defined as the lowest compound concentration that inhibited 90% of bacteria growth. The intrinsic MIC of the experimental EPIs was tested with the method described. […] The following Gram-negative bacterial strains were included in these assays: Pseudomonas aeruginosa PAO1

`CC(C)C1Cc2c([nH]c3cc(Cl)c(Cl)cc23)C(N)C1` (centres unmarked) [Example 38, 6,7-Dichloro-3-isopropyl-2,3,4,9-tetrahydro-1H-carbazol-1-amine]: the MIC – broadly, the smallest concentration in the dilution series that meets the test's criterion for growth inhibition – with E. coli 25922 came out at 4 µg/mL (≈ 13.5 µM). For the same molecule, in the assay with P. aeruginosa PAO1 [1], the “Enhancement (intrinsic MIC versus MIC with EPI)” value is “(>64x)” and the “Antibiotic Activity Against P. aeruginosa MIC with EPI” value came to 4 µg/mL. Besides, in the assay on P. aeruginosa PAO1 [2], the minimum inhibitory concentration (MIC) was above 256 µg/mL.
Take `NCCNC1CCCc2c1[nH]c1ccc(Br)cc21` (centres unmarked) [Example 39, N^1-(6-bromo-2,3,4,9-tetrahydro-1H-carbazol-1-yl)ethane-1,2-diamine]: the results for the MIC in the assay with E. coli 25922 and with P. aeruginosa PAO1 [2] were 16 µg/mL (≈ 51.9 µM) and 32 µg/mL (≈ 104 µM), respectively. Also, the “Antibiotic Activity Against P. aeruginosa MIC with EPI” value in the assay with P. aeruginosa PAO1 [1] worked out at 16 µg/mL.
Turning to `CNCC1Cc2c([nH]c3ccc(Br)cc23)C(N)C1` (centres unmarked) [Example 41, 6-Bromo-3-((methylamino)methyl)-2,3,4,9-tetrahydro-1H-carbazol-1-amine Hydrogen Chloride Salt], the MIC in the assay on E. coli 25922 came out at 256 µg/mL. Besides, in the assay with P. aeruginosa PAO1 [1], the “Enhancement (intrinsic MIC versus MIC with EPI)” value was “(4x)” and the “Antibiotic Activity Against P. aeruginosa MIC with EPI” value was determined as 64 µg/mL. The MIC in the assay with P. aeruginosa PAO1 [2] is 128 µg/mL.
